{
  "source": "patent EP0086705A1",
  "about": "“Aqueous solution of ursodeoxycholic acid for therapeutic uses, process for its preparation and its utilization for the treatment of cholelithiasis” (S.A. PANMEDICA Société dite:, priority 1982, dated 1983)",
  "origin": "cited, not measured here",
  "details": "37\"C",
  "data": [
    {"smiles": "C[C@H](CCC(=O)O)[C@H]1CC[C@H]2[C@@H]3[C@H](O)C[C@@H]4C[C@H](O)CC[C@]4(C)[C@H]3CC[C@]12C", "note": "[acide chénodésoxycholique]", "values": [
      {"measurement": "pH de précipitation de la solution", "result": "7,0"}
    ]}
  ]
}
